According to patent US8404724B2, “Unit dose formulations and methods of treating thrombosis with an oral factor Xa inhibitor” (Millennium Pharmaceuticals, Inc., priority 2006, dated 2013):
Counter-ions that a name gives are not always drawn. Like-named read-outs stand apart in the source and are kept apart here. One block for each molecule: values may come before it.

Key:
[1] = test system: vessel patency in FeCl3 induced thrombosis in rat carotid artery; assay: Rat carotid artery FeCl3 induced thrombosis model; format: in vivo
Experimental: Rat FeCl3 model adapted from Kurz, K. D. et al. Thromb. Res. 1990; 60(4):269-280, incorporated by reference in its entirety herein, utilizing the left carotid artery. A stenosis of the artery was applied with a silk ligature reducing blood flow by 50% with a light crush injury followed by application of 50% FeCl3 for the duration of the experiment. Blood flow was monitored via pulsed Doppler flow probe and recorded for 90 minutes post-FeCl3 application. Enoxaparin and Betrixaban administered IV. Clopidogrel administered orally Q.D. for 3 days.

[2] = test system: PT and aPTT; assay: Ex vivo PT and aPTT in rat carotid model; details: 3 mg/kg/day
Experimental: The third model investigated inhibition of ^111In labeled platelet deposition on dacron grafts and expansion chambers placed in femoral arteriovenous shunts in baboons. In all models tested, betrixaban and enoxaparin were administered as IV infusions and clopidogrel was dosed orally for three days. Ex vivo PT and aPTT were measured in all models.

[3] = test system: TF-induced plasma thrombin generation; assay: TF-induced plasma thrombin generation assay (plasma pool); format: biochemical, human
Source text: For the in vitro studies, a plasma pool was generated from blood collected via venipuncture into 3.2% (1:9 v/v) tri-sodium citrate from a minimum of ten donors. The specific thrombin substrate used was Z-GGR-AMC (Bachem). Tissue factor (Innovin, “TF”) was purchased from Dade Behring. Rabbit anti-human TF IgG and purified recombinant human TF were from American Diagnostica. COATEST LMW Heparin/Heparin Kits were from Chomogenix. Source of anticoagulants tested were as follows: enoxaparin sodium (Aventis Pharmaceuticals), fondaparinux sodium (Glaxo Smith Kline), bivalirudin (The Medicines Company), fXa inhibitor C921-78 (Betz, A. et al. Biochem., 1999; 38-14582-14591); rivaroxaban and razaxaban.
Thrombin generation in the plasma pool in the absence and presence of various anticoagulants and in warfarin treated patients was initiated by the addition of Innovin and calcium. Thrombin generation was measured by the continuous signal generated by cleavage of thrombin substrate over a 10 min period in a FlexStation fluorescence reader ([…]). The fluorescence signal (Max-Min relative fluorescence units) is presented as units (RFU) or arbitrary unites (AU) of thrombin generation and anti-fXa units were measured by Coatest. Quantitation of TF concentration in Innovin was carried out by immunoblotting with rabbit anti-human TF IgG, followed by densitometry and comparison with purified human TF (residues 1-263, expressed in baculovirus).

[4] = Salt selection properties; format: physicochemical
[5] = test system: venous thromboembolism; assay: Randomized trial after total knee replacement: VTE incidence; format: in vivo, human; details: for VTE % (95% CI): 10 to 14 days after TKR
Experimental: The primary efficacy endpoint was the incidence of venous thromboembolism (“VTE”) (symptomatic or asymptomatic deep vein thrombosis on a mandatory unilateral venogram or symptomatic pulmonary embolism) through Day 10 to 14. Safety endpoints included the incidence of major and clinically significant nonmajor bleeds through the day after venography. All efficacy and bleeding endpoints were adjudicated by a blinded, independent central adjudication committee. […] Enoxaparin was administered subcutaneously 12 to 24 hours after surgery and every 12 hours (q 12 h) thereafter. Treatment continued for 10 to 14 days unless a protocol-specified stopping criterion had been met. After discharge from the hospital, patients self-administered study medication. The last dose of study medication was administered the morning of the scheduled mandatory venography of the operated leg (Day 10 to 14).

[6] = test system: prothrombin time in baboon plasma; assay: In vitro extension of PT in baboon plasma
[7] = test system: prothrombin time in human plasma; assay: In vitro extension of PT in human plasma
[8] = test system: tissue factor initiated thrombin generation in human whole blood; assay: Whole blood prothrombinase / tissue factor initiated thrombin generation assay; format: biochemical
Experimental: Thrombin activity was quantitated by cleavage of the fluorogenic substrate. […] Relative fluorescence unit (RFU) measurements of representative donor is shown.
Thrombin generation assays were performed as described in Example 4, with compounds added ex vivo to human whole blood. PT and aPTT values in various species determined from compounds added to platelet poor plasma. Samples were run on an ACL 3000plus (Coulter), PT determined using Dade® Thromboplastin C plus and aPTT determined using Dade® Actin® FS Activated PTT reagent.

[9] = test system: thrombus growth (platelet deposition, fibrin deposition) in arteriovenous shunt; assay: Thrombogenic device in arteriovenous shunt in baboons; format: in vivo, baboon
[10] = test system: thrombin, factor VIIa, factor IXa, activated protein C, tissue plasminogen activator, plasmin and trypsin; assay: Amidolytic assays for related proteases (specificity); format: biochemical; details: relative to human fXa
[11] = test system: prothrombin time in rabbit plasma; assay: In vitro extension of PT in rabbit plasma
[12] = test system: thrombus mass in rabbit abdominal vena cava; assay: Rabbit vena cava thrombosis model (clot accretion on cotton threads); format: in vivo; details: 3 mg/kg IV infusion
Experimental: Multiple doses of betrixaban were evaluated in three animal models. […] Efficacy in rabbit venous thrombosis was determined by measuring the thrombus accretion on cotton threads placed in the vena cava by means of a catheter inserted into the left femoral vein, as described by Hollenbach et al., Thromb. Haemost. 1994; 71:357-362, incorporated by reference in its entirety herein. The decrease in thrombus weight following a two hour infusion of compound was expressed relative to vehicle control. See also Sinha, et al., Eur. J. Pharmacology. 395:51-59 (2000), incorporated by reference in its entirety herein.

[13] = test system: thrombin generation, anti-Xa activity, aPTT, PT, INR in patient plasma; assay: Randomized trial after total knee replacement: pharmacodynamic measurements; format: in vivo, human
Experimental: Blood samples for assessment of plasma drug concentrations and pharmacodynamic measurements were obtained at screening, 1 to 4 hours after administration of the morning dose of study medication on Day 2, on the day of discharge and prior to the mandatory venogram on Day 10 to 14. Plasma samples were analyzed for betrixaban using high-performance-liquid-chromatography with tandem mass spectrometry. The method was validated for a range from 0.100-50.0 ng/mL, based on the analysis of 0.2 mL plasma. Quantitation was performed using a calibration standard curve generated from weighted least square regression analysis. […] The anti-Xa unit assay was adapted from the Coatest LMW heparin kit (Diapharma) and modified to a 96-well plate format. In this assay, standards and patient samples were assayed in duplicate and the limit of quantification was 0.05 anti-Xa U/mL. Thrombin generation was initiated by the addition of tissue factor (Innovin, Dade Behring) and calcium to citrate anticoagulated patient plasma (0.1 mL). Formation of thrombin was measured by cleavage of a specific thrombin substrate (Z-GGR-AMC, Bachem) over a 10 minute period. Relative fluorescence units were measured in a FlexStation fluorescence reader (Molecular Devices) and used for quantitation of thrombin generation. All patient plasma samples were assayed in triplicate and inhibition of thrombin generation reported as change from baseline relative fluorescent unit for each individual.

[14] = Randomized trial after total knee replacement: bleeding and tolerability; set-up: species or system human; details: in vivo
Source text: The primary efficacy endpoint was the incidence of venous thromboembolism (“VTE”) (symptomatic or asymptomatic deep vein thrombosis on a mandatory unilateral venogram or symptomatic pulmonary embolism) through Day 10 to 14. Safety endpoints included the incidence of major and clinically significant nonmajor bleeds through the day after venography. All efficacy and bleeding endpoints were adjudicated by a blinded, independent central adjudication committee.

[15] = test system: clotting parameters (ACT, PT, aPTT, anti fXa units, plasma thrombin generation); assay: Ex vivo coagulation measurements and bleeding time in baboon model
[16] = test system: prothrombin time in rat plasma; assay: In vitro extension of PT in rat plasma
[17] = Plasma concentration of betrixaban in baboon model; format: in vivo
[18] = Baboon Arteriovenous, 0.49 mg/kg

Molecule: COC(=O)[C@H](c1ccccc1Cl)N1CCc2sccc2C1 [Clopidogrel]
Antithrombotic Activity ([1]; 3 mg/kg/day orally for 3 days): 80% patency
APTT fold change [2]: 1.03 fold
PT fold change [2]: 1.01 fold

Molecule: CN(C)Cc1nccn1-c1ccc(NC(=O)c2cc(C(F)(F)F)nn2-c2ccc3onc(N)c3c2)c(F)c1 [Razaxaban]
IC50 ([3]; read-out: IC50): 0.125 µM

Molecule: COc1ccc(NC(=O)c2ccc(C(=N)N(C)C)cc2)c(C(=O)Nc2ccc(Cl)cn2)c1 [betrixaban maleate]
crystallinity, thermal and hydrolytic stability [4]: excellent

Molecule: Bivalirudin
IC50 [3]: 2.4 µg/mL

More lines, main results first:

IC50 ([3]; read-out: IC50): 0.08 µM
Molecule: O=C(NC[C@H]1CN(c2ccc(N3CCOCC3=O)cc2)C(=O)O1)c1ccc(Cl)s1 [Rivaroxaban]

Template bleeding times ([15]; any of the betrixaban treated animals): not perturbed
Plasma Concentration Range of Betrixaban ([17]; Dosed Group 1): 7 to 10 ng/mL
Plasma Concentration Range of Betrixaban ([17]; Dosed Group 2): 13 to 21 ng/mL
Plasma Concentration Range of Betrixaban ([17]; Dosed Group 3): 26 to 38 ng/mL
Plasma Concentration Range of Betrixaban ([17]; Dosed Group 4): 54 to 88 ng/mL
Molecule: COc1ccc(NC(=O)c2ccc(C(=N)N(C)C)cc2)c(C(=O)Nc2ccc(Cl)cn2)c1 [betrixaban]
Antithrombotic Activity ([1]; 19.1 mg/kg IV): 90% patency
VTE % (95% CI) ([5]; 15 mg BID orally): 20 (12-32) %
VTE % (95% CI) ([5]; 40 mg BID orally): 15 (8-27) %
preventing VTE after TKR ([5]; in vivo): effective
concentration for 2× change of PT [6]: 1 µM
concentration for 2× change of PT [7]: 0.4 µM
suppressing both markers of thrombin generation, compared to fondaparinux (200 nM) ([8]; 200 nM, human whole blood): more potent
TAT and F1.2 generation ([8]; human whole blood): significantly inhibited
tissue factor initiated thrombin generation ([8]; human whole blood): dose-dependent inhibition
platelet mediated prothrombinase activity ([8]; whole blood prothrombinase assay): dose-dependently inhibited
Antithrombotic Activity (arterial) [9, 18]: 32% inhibition
Antithrombotic Activity (venous) [9, 18]: 90% inhibition
Platelet deposition at 140 minutes ([9]; Dose 3 (26-38 ng/ml), P<0.05): significant decrease compared to control
% Inhibition of Fibrin Formation ([9]; Dosed Group 1): −0.38%
% Inhibition of Platelet Deposition ([9]; Dosed Group 1): 29.71%
% Inhibition of Fibrin Formation ([9]; Dosed Group 2): 37.50%
% Inhibition of Platelet Deposition ([9]; Dosed Group 2): 44.20%
% Inhibition of Fibrin Formation ([9]; Dosed Group 3): 71.97%
% Inhibition of Platelet Deposition ([9]; Dosed Group 3): 65.22%
% Inhibition of Fibrin Formation ([9]; Dosed Group 4): 87.12%
% Inhibition of Platelet Deposition ([9]; Dosed Group 4): 88.77%
Platelet deposition at 140 minutes ([9]; dose 4 (54-88 ng/ml), P value<0.01): significant decrease compared to control
specificity against related proteases [10]: greater than 86,000 fold
concentration for 2× change of PT [11]: 1.6 µM
Antithrombotic Activity [12]: 76% inhibition
effect on anti-Xa activity ([13]; 15 mg, compared with enoxaparin): less
effect on the inhibition of thrombin generation ([13]; 40 mg, TKR patients, compared with enoxaparin): more pronounced
effect on anti-Xa activity ([13]; 40 mg, compared with enoxaparin): similar
other coagulation parameters (i.e. aPTT, PT and INR) ([13]; TKR patients): did not appreciably affect
safety and tolerability [14]: safe and well tolerated
Anti fXa units ([15]; highest dose): 0.31 Units/ml
inhibition of plasma thrombin generation (ex vivo) ([15]; highest dose): 72%
inhibition of plasma thrombin generation (ex vivo) ([15]; lowest dose): 13%
Anti fXa units ([15]; three lower doses): below the limit of quantitation
concentration for 2× change of PT [16]: 8.9 µM
